Assay results from patent publication US6465476B1, “Immuno-modulator exhibiting antimicrobial and anti-mycrobacterial activities, method for producing the same and pharmaceutical preparation” (priority 1997, dated 2002).
Like-named read-outs stand apart in the source and are kept apart here.

How the values were obtained:
[1] = test system: antibody-forming cells (AFC) in the spleen; test: Humoral immunity, localized-in-gel hemolysis, AFC accumulation in spleen of immunized mice; assay type: in vivo, hybrid mice F1 (CBA/C57BL6)
Method: The influence on humoral immunity was studied using the method of localized-in-gel hemolysis. […] On the 5th day the number of antibody-forming cells (AFC) in the spleen of the mice was calculated and the immune response stimulation index was determined as the ratio of AFC number in the test group to the AFC number in the control group. The respective data are represented in Table 2.

[2] = test system: tuberculosis mycobacteria H37Rv (USSR H37Rv); assay type: in vivo, tuberculosis mycobacteria; mice of the CBA line; conditions: USSR H37Rv
[3] = test system: human mononucleator cells (T-lymphocytes); test: Proliferation of T-lymphocytes in cell culture in vitro (3H-thymidine); assay type: cell-based
Method: The influence of the test compound on the proliferation of T-lymphocytes was studied on a model in vitro. To this end human mononucleator cells were preliminarily incubated during three hours in the presence of different concentrations of each test substance. Each test substance was studied over a wide range of its concentrations, that is from […]. As a negative control there was added a physiological 0.9 percent solution of NaCl. The results of the influence of novel compoubds on the intensity of proliferation of human lymphocytes in the cell culture in vitro are represented in Table 3.

[4] = test system: agent of leprosy (mycobacteria of leprosy); conditions: leprosy patients
Tubazide-resistent H37Rv = assay type: in vivo, tuberculosis mycobacteria; mice of the CBA line; conditions: Tubazide-resistent H37Rv
[5] = test system: Kyp-4 strain of leprosy mycobacteria; test: Antileprous activity in mice infected by Shepard's procedure; assay type: in vivo, leprosy mycobacteria; male mice of the CBA line; conditions: after six months; isophonum dose 2.5 mg/kg
Text: Antileprous activity of isophonum as compared with that of diuciphonum was studied on male mice of the CBA line infected with the laboratory Kyp-4 strain of leprosy mycobacteria taken in an amount of 5000 and introduced intraplantedly by Shepard's procedure. The experiment lasted six months from the 7th of February to the […] 1996. Observed were 5 groups of mice with 15 mice in each group. All the animals were kept under the same conditions of the vivarium on a standard diat.
The first group (controls): during six months of the experiment the mice received 0.5 ml of a starch suspension through a probe five times a week. After six months the animals were killed through a cervical dislocation of backbone, the organs were subjected to a bacterioscopic investigation, no pathologic deviations characteristic of any of the groups were found. The bacteriscopic investigation of the infected site was carried out by grinding the mouse foot in 2 ml of 0.1 percent solution of albumin, making a smear from 0.01 ml of the suspenstion and painting it by Ziel-Nielson's procedure and counting the number of leprosy micobacteria in 60 fields of vision to determine the number of micobacteria per mouse in each group.

[6] = in vivo; cited from earlier work
[7] = test system: antibody-forming cells (AFC) in the spleens; test: Antibody-forming cells in the spleen, immunodeficiency caused by irradiation (Jeme-Nordin's procedure); assay type: in vivo, mice F1 (CBA×C57BL/6); conditions: irradiated mice 4 Gy
Method: Determination of immunotropic activity of isophonum was carried out. Immunotropic activity of isophonum was determined on a model of immunodeficiency caused by irradiation. To create an immunodeficient state the mice F1 (CBA×C57BL/6) were irradiated with gamma-rays on a radioterapeutic apparatus in a dose of 4 Gy (Gy is the irradiation unit gray) at an irradiation dose power of 0.55 Gr/min. The number of antibody-forming cells (AFC) in the spleens was calculated by Jeme-Nordin's procedure. Isophonum and diuciphonum were introduced per os over a wide range of doses. The investigation results are represented in Table 1.

macrophages = test: Phagocytic activity of macrophages (clearance from blood); assay type: in vivo, mice; conditions: 500 μg per mouse per os
Text: The influence of the preparations in question on the phagocytic activity of macrophages was studid from clearence of the carcass in blood taken from the retroorbital sinus of mice that received the preparations per os. The results were estimated on the phagocytic index α (see Table 4).

[8] = due to impurities contained therein; cited from earlier work
[9] = after three months, 0.6 g daily

SMILES: Cc1[nH]c(=O)[nH]c(=O)c1S(=O)(=O)Nc1ccc(S(=O)(=O)c2ccc(NS(=O)(=O)c3c(C)[nH]c(=O)[nH]c3=O)cc2)cc1 [Diuciphonum, reference compound]
- AFC-number in the spleen ([1]; 500 μg per mouse per os in starch suspension, 5th day after immunization): 2250 ± 125
- Immune response stimulation index ([1]; 500 μg per mouse per os, ratio of AFC test group to control group): 4.5
- Damage index ([2]; dose not given): 2.31 ± 0.24
- Life duration ([2]; dose not given): 25.1 ± 2.8
- Weight of the lung ([2]; dose not given): 580.4 ± 50.7
- Intensity of involvement of 3H-thymidine in DNA of cultivated cells, PHA-activated ([3]; 0.01 μg/ml): 22811 impulse per minute
- Intensity of involvement of 3H-thymidine in DNA of cultivated cells, Spontaneous ([3]; 0.01 μg/ml): 860 impulse per minute
- Intensity of involvement of 3H-thymidine in DNA of cultivated cells, PHA-activated ([3]; 0.03 μg/ml): 24214 impulse per minute
- Intensity of involvement of 3H-thymidine in DNA of cultivated cells, Spontaneous ([3]; 0.03 μg/ml): 850 impulse per minute
- Intensity of involvement of 3H-thymidine in DNA of cultivated cells, PHA-activated ([3]; 0.1 μg/ml): 28946 impulse per minute
- Intensity of involvement of 3H-thymidine in DNA of cultivated cells, Spontaneous ([3]; 0.1 μg/ml): 804 impulse per minute
- Intensity of involvement of 3H-thymidine in DNA of cultivated cells, PHA-activated ([3]; 1 μg/ml): 26400 impulse per minute
- Intensity of involvement of 3H-thymidine in DNA of cultivated cells, Spontaneous ([3]; 1 μg/ml): 799 impulse per minute
- Intensity of involvement of 3H-thymidine in DNA of cultivated cells, PHA-activated ([3]; 5 μg/ml): 20150 impulse per minute
- Intensity of involvement of 3H-thymidine in DNA of cultivated cells, Spontaneous ([3]; 5 μg/ml): 800 impulse per minute
- B-lymphocytes ([4]; after one month, 0.6 g daily): 8.4 ± 0.6
- T-helpers ([4]; after one month, 0.6 g daily): 32.4 ± 2.0
- T-lymphocytes ([4]; after one month, 0.6 g daily): 50.5 ± 2.1
- T-suppressors ([4]; after one month, 0.6 g daily): 20.1 ± 0.6
- Th/Ts (immunoregulatory index) ([4]; after one month, 0.6 g daily): 1.6 ± 0.1
- B-lymphocytes [4, 9]: 9.0 ± 0.3
- T-helpers [4, 9]: 36.9 ± 2.3
- T-lymphocytes [4, 9]: 55.4 ± 2.4
- T-suppressors [4, 9]: 20.0 ± 0.5
- Th/Ts (immunoregulatory index) [4, 9]: 1.8 ± 0.4
- B-lymphocytes ([4]; before treatment): 6.3 ± 0.3
- T-helpers ([4]; before treatment): 16.8 ± 0.2
- T-lymphocytes ([4]; before treatment): 30.4 ± 0.4
- T-suppressors ([4]; before treatment): 17.0 ± 0.4
- Th/Ts (immunoregulatory index) ([4]; before treatment): 1.0
- Damage index (Tubazide-resistent H37Rv; dose not given): 2.27 ± 0.19
- Life duration (Tubazide-resistent H37Rv; dose not given): 24.9 ± 2.4
- Weight of the lung (Tubazide-resistent H37Rv; dose not given): 602.7 ± 70.2
- Number of mycobacteria in the foot × 10^6 [5]: 0.048 ± 0.007 × 10^6
- Percentage of infected animals [5]: 60%
- toxicity [6]: 2600 mg/kg
- AFC-number in the spleen ([7]; 10 μg per mouse per os): 768 ± 123
- Immune response stimulation index ([7]; 10 μg per mouse per os): 2.5 ± 0.2
- AFC-number in the spleen ([7]; 100 μg per mouse per os): 870 ± 119
- Immune response stimulation index ([7]; 100 μg per mouse per os): 2.9 ± 0.12
- AFC-number in the spleen ([7]; 1000 μg per mouse per os): 647 ± 64
- Immune response stimulation index ([7]; 1000 μg per mouse per os): 2.1 ± 0.2
- Phagocytic index (macrophages): 5.18 ± 0.04
- Phagocytic index, percent of controls (macrophages; controls 100%): (123%)

SMILES: Cc1[nH]c(=O)[nH]c(=O)c1S(=O)(=O)NNC(=O)c1ccncc1 [N-(6-methyl-2,4-dioxo-1,2,3,4-tetrahydro-5-pyrimidinsulfon)-N′-isonicotinoylhydrazide]
- behaviour on prolonged storage [8]: does not withstand prolonged storage conditions

SMILES: NNC(=O)c1ccncc1 [Tubazide]
- Damage index ([2]; 100 μg per mouse): 2.16 ± 0.17
- Weight of the lung ([2]; 100 μg per mouse): 586.4 ± 47.2
- Damage index ([2]; 200 μg per mouse): 2.11 ± 0.18
- Life duration ([2]; 200 μg per mouse): 32.2 ± 4.4
- Weight of the lung ([2]; 200 μg per mouse): 550.6 ± 46.4
- Damage index (Tubazide-resistent H37Rv; 100 μg per mouse): 2.44 ± 0.24
- Life duration (Tubazide-resistent H37Rv; 100 μg per mouse): 23.7 ± 2.4
- Weight of the lung (Tubazide-resistent H37Rv; 100 μg per mouse): 628.7 ± 48.4
- Damage index (Tubazide-resistent H37Rv; 200 μg per mouse): 2.01 ± 0.18
- Life duration (Tubazide-resistent H37Rv; 200 μg per mouse): 30.2 ± 2.8
- Weight of the lung (Tubazide-resistent H37Rv; 200 μg per mouse): 580.4 ± 46.4
- toxicity [6]: 150 mg/kg
